Experimental findings from ChEMBL document CHEMBL1153012, “Synthesis and antibacterial activity of novel 5-(4-methyl-1H-1,2,3-triazole) methyl oxazolidinones” (2009) are described below.

Common to all, as to assay type: functional
For one assay, the system named is Streptococcus pneumoniae. Description: Antibacterial activity against Streptococcus pneumoniae by agar dilution method. A general note: In agar dilution, organisms are placed on agar that contains the substance at set levels.
Assay [1] relates to Haemophilus influenzae. The experiment in a line: Antibacterial activity against Haemophilus influenzae isolate 282 by agar dilution method.
For assay [2], the system named is Haemophilus influenzae. Description: Antibacterial activity against Haemophilus influenzae isolate 283 by agar dilution method.
A further assay has as its system Escherichia coli. Description: Antibacterial activity against Escherichia coli ATCC 25922 by agar dilution method.
The subject of assay [3] is Enterococcus. The experiment in a line: Antibacterial activity against vancomycin-sensitive Enterococcus by agar dilution method.
Assay [4] concerns Staphylococcus. Description: Antibacterial activity against methicillin resistant coagulase-negative Staphylococcus by agar dilution method.
Assay [5] relates to Staphylococcus aureus. The experiment in a line: Antibacterial activity against Staphylococcus aureus ATCC 25923 by agar dilution method in presence of human plasma. The note with it: ATCC 25923, Plasma.
Assay [6] deals with Haemophilus influenzae. Description: Antibacterial activity against Haemophilus influenzae isolate 280 by agar dilution method.
Assay [7] has as its system Staphylococcus. Description: Antibacterial activity against methicillin-sensitive coagulase-negative Staphylococcus by agar dilution method.
The test system of assay [8] is Haemophilus influenzae. Description: Antibacterial activity against Haemophilus influenzae ATCC 49247 by agar dilution method.
A further assay concerns Moraxella catarrhalis. The experiment in a line: Antibacterial activity against Moraxella catarrhalis by agar dilution method.
Assay [9] has as its system Staphylococcus aureus. Description: Antibacterial activity against methicillin-resistant Staphylococcus aureus by agar dilution method.
Assay [10] has as its system Enterococcus. Description: Antibacterial activity against vancomycin-resistant Enterococcus by agar dilution method.
Assay [11] concerns Staphylococcus aureus. Description: Antibacterial activity against Staphylococcus aureus ATCC 25923 by agar dilution method.
For assay [12], the system named is Staphylococcus aureus. The experiment in a line: Antibacterial activity against methicillin-susceptible Staphylococcus aureus by agar dilution method.
The test system of assay [13] is Haemophilus influenzae. The experiment in a line: Antibacterial activity against Haemophilus influenzae isolate 285 by agar dilution method.

Values after ≈ are worked out from the molar mass of the structure shown. Where only a bound is given, the exact number is not on record here.

`Cc1cn(C[C@H]2CN(c3ccc(N4CCN(C(=O)C(Cl)Cl)CC4)c(F)c3)C(=O)O2)nn1`: the MIC is 1 µg/mL (≈ 2.12 µM) in the assay on Streptococcus pneumoniae; 32 µg/mL (≈ 67.9 µM) in the assay with Haemophilus influenzae [1]; 64 µg/mL (≈ 136 µM) against Haemophilus influenzae [2]; > 64 µg/mL in the assay on Escherichia coli; 1 µg/mL (≈ 2.12 µM) against Enterococcus [3]; 0.5 µg/mL (≈ 1.06 µM) in the assay with Staphylococcus [4]. In addition, the MIC with Staphylococcus aureus [5] is 8 µg/mL; in the assay on Haemophilus influenzae [6], 32 µg/mL (≈ 67.9 µM); in the assay on Staphylococcus [7] it was 1 µg/mL (≈ 2.12 µM); in the assay on Haemophilus influenzae [8], 64 µg/mL (≈ 136 µM); in the assay on Moraxella catarrhalis, 16 µg/mL (≈ 33.9 µM); against Staphylococcus aureus [9] it was 1 µg/mL (≈ 2.12 µM). Moreover, the MIC amounted to 1 µg/mL (≈ 2.12 µM) in the assay with Enterococcus [10], 2 µg/mL (≈ 4.24 µM) against Staphylococcus aureus [11], 1 µg/mL (≈ 2.12 µM) against Staphylococcus aureus [12] and 32 µg/mL (≈ 67.9 µM) in the assay on Haemophilus influenzae [13].
In the case of `Cc1cn(C[C@H]2CN(c3ccc(N4CCN(C(=O)C5CC5)CC4)c(F)c3)C(=O)O2)nn1`, the MIC against Streptococcus pneumoniae was 2 µg/mL (≈ 4.67 µM); with Haemophilus influenzae [1] it was 32 µg/mL (≈ 74.7 µM); in the assay with Haemophilus influenzae [2], 32 µg/mL (≈ 74.7 µM); with Escherichia coli, > 64 µg/mL; against Enterococcus [3], 1 µg/mL (≈ 2.33 µM); in the assay on Staphylococcus [4], 1 µg/mL (≈ 2.33 µM). In addition, the MIC in the assay on Staphylococcus aureus [5] was determined as 16 µg/mL; in the assay on Haemophilus influenzae [6] it was 32 µg/mL (≈ 74.7 µM); against Staphylococcus [7], 1 µg/mL (≈ 2.33 µM); against Haemophilus influenzae [8], 32 µg/mL (≈ 74.7 µM); against Moraxella catarrhalis, 16 µg/mL (≈ 37.3 µM); against Staphylococcus aureus [9] it was 2 µg/mL (≈ 4.67 µM). Further, the MIC was determined as 1 µg/mL (≈ 2.33 µM) against Enterococcus [10], 2 µg/mL (≈ 4.67 µM) in the assay on Staphylococcus aureus [11], 2 µg/mL (≈ 4.67 µM) in the assay with Staphylococcus aureus [12] and 32 µg/mL (≈ 74.7 µM) against Haemophilus influenzae [13].
For the molecule `Cc1cn(C[C@H]2CN(c3ccc(N4CCN(C(=O)C5CCCCC5)CC4)c(F)c3)C(=O)O2)nn1`, the MIC was 4 µg/mL (≈ 8.5 µM) in the assay on Streptococcus pneumoniae; 32 µg/mL (≈ 68 µM) against Haemophilus influenzae [1]; 32 µg/mL (≈ 68 µM) against Haemophilus influenzae [2]; > 64 µg/mL with Escherichia coli; 1 µg/mL (≈ 2.13 µM) against Enterococcus [3]; 1 µg/mL (≈ 2.13 µM) against Staphylococcus [4]. In addition, the MIC with Staphylococcus aureus [5] was 32 µg/mL; against Haemophilus influenzae [6] it was 32 µg/mL (≈ 68 µM); with Staphylococcus [7], 1 µg/mL (≈ 2.13 µM); in the assay on Haemophilus influenzae [8], 32 µg/mL (≈ 68 µM); against Moraxella catarrhalis, 32 µg/mL (≈ 68 µM); in the assay with Staphylococcus aureus [9], 2 µg/mL (≈ 4.25 µM). Further, the MIC is 1 µg/mL (≈ 2.13 µM) with Enterococcus [10], 2 µg/mL (≈ 4.25 µM) against Staphylococcus aureus [11], 1 µg/mL (≈ 2.13 µM) with Staphylococcus aureus [12] and 32 µg/mL (≈ 68 µM) with Haemophilus influenzae [13].
In the case of `CCCCC(=O)N1CCN(c2ccc(N3C[C@H](Cn4cc(C)nn4)OC3=O)cc2F)CC1`, the MIC is 2 µg/mL (≈ 4.5 µM) against Streptococcus pneumoniae; 64 µg/mL (≈ 144 µM) against Haemophilus influenzae [1]; 64 µg/mL (≈ 144 µM) in the assay with Haemophilus influenzae [2]; > 64 µg/mL in the assay on Escherichia coli; 1 µg/mL (≈ 2.25 µM) in the assay on Enterococcus [3]; 1 µg/mL (≈ 2.25 µM) in the assay on Staphylococcus [4]. The MIC in the assay on Staphylococcus aureus [5] turned out to be 32 µg/mL; with Haemophilus influenzae [6] it was 64 µg/mL (≈ 144 µM); with Staphylococcus [7] it was 1 µg/mL (≈ 2.25 µM); against Haemophilus influenzae [8], 64 µg/mL (≈ 144 µM); in the assay with Moraxella catarrhalis it was 16 µg/mL (≈ 36 µM); in the assay with Staphylococcus aureus [9], 1 µg/mL (≈ 2.25 µM). Moreover, the MIC against Enterococcus [10] was 1 µg/mL (≈ 2.25 µM); in the assay on Staphylococcus aureus [11] it was 2 µg/mL (≈ 4.5 µM); in the assay on Staphylococcus aureus [12] it was 1 µg/mL (≈ 2.25 µM); in the assay with Haemophilus influenzae [13], 64 µg/mL (≈ 144 µM).
As for `CCC(C)C(=O)N1CCN(c2ccc(N3C[C@H](Cn4cc(C)nn4)OC3=O)cc2F)CC1` (stereo not given in full), the MIC was 4 µg/mL (≈ 9 µM) with Streptococcus pneumoniae; > 64 µg/mL with Haemophilus influenzae [1]; > 64 µg/mL in the assay on Haemophilus influenzae [2]; > 64 µg/mL in the assay on Escherichia coli; 4 µg/mL (≈ 9 µM) in the assay on Enterococcus [3]; 2 µg/mL (≈ 4.5 µM) with Staphylococcus [4]. In addition, the MIC in the assay with Staphylococcus aureus [5] is 32 µg/mL; in the assay on Haemophilus influenzae [6] it was > 64 µg/mL; against Staphylococcus [7] it was 2 µg/mL (≈ 4.5 µM); against Haemophilus influenzae [8], > 64 µg/mL; against Moraxella catarrhalis, 32 µg/mL (≈ 72 µM); against Staphylococcus aureus [9], 2 µg/mL (≈ 4.5 µM). Moreover, the MIC is 4 µg/mL (≈ 9 µM) in the assay with Enterococcus [10], 2 µg/mL (≈ 4.5 µM) against Staphylococcus aureus [11], 2 µg/mL (≈ 4.5 µM) with Staphylococcus aureus [12] and > 64 µg/mL against Haemophilus influenzae [13].
